Experimental data reported in patent US12486276B2, “5-(2,5-difluorophenyl)pyrrolidin-1-yl)-3-(1H-pyrazol-1-yl)pyrazolo[1,5-a]pyrimidine derivatives and related compounds as Trk kinase inhibitors for treating cancer” (Pyramid Biosciences, Inc., priority 2017, dated 2025).

Target: T1, TrkA kinase domain (Homo sapiens, UniProt P04629)
T1 construct: TrkA kinase domain was supplied by SignalChem; purchased SignalChem
Assay: TrkA Kinase Assay (Trk kinase biochemical assay)
Details: 33 pM TrkA, 100 nM peptide substrate, 10 µM ATP; 15 minute preincubation; read-out: TrkA WT IC50
Method: Example 33: TrkA Kinase Assay Protocol
TrkA kinase domain was supplied by SignalChem. Ulight PolyGT peptide substrate and Europium labeled W1024 antiphosphotyrosine antibody were supplied by Perkin Elmer. Assay buffer contained 50 mM HEPES, 10 mM MgCb, 1 mM EGTA, 2 mM DTT, 0.1 mg/mL BSA, and 0.005% w/v tween 20, pH 7.5. Enzyme dilution buffer was made by supplementing assay buffer with 25% w/v glycerol. Antibody dilution buffer contained 20 mM Tris, 137 mM NaCl, and 0.05% w/v tween 20, pH 8.0. Buffers were prepared at room temperature. Enzyme solutions were made on ice, while other solutions were made at room temperature and all subsequent assay steps were performed at room temperature. The TrkA stock solution (0.1 mg/mL) was diluted 156× in enzyme dilution buffer and then 100× in assay buffer. Five pL/well of enzyme solution was added to the assay plate (Greiner black 384-well nonbinding plate), with buffer containing no enzyme added to negative control wells. Test compounds were serially diluted in DMSO at 300× final assay concentration. One μL of each test compound dilution was mixed with 99 pL assay buffer plus ATP (30 μM) and five pL of each test compound-ATP solution was added to w¾13s containing enzyme. Positive control wells contained enzyme and substrates but no test compounds. After a 15 minute enzyme-test compound preincubation, five pL of substrate diluted in assay buffer was added to all wells. Final assay concentrations were 33 pM TrkA, 100 nM peptide substrate, and […]. After a five minute reaction, five pL of 80 mM EDTA was added, followed five minutes later by five pL two nM antibody solution. The ratio of fluorescence at 665 nm vs. 615 nM in each well was determined using a Tecan Infinite Pro F200 plate reader. For each test compound well, percent inhibition w % s calculated (% inliib. =100-100*(test value-neg. control)/(pos. control-neg. control)). Percent inhibition values were fit to a four parameter logistic to determine ICso values for each test compound.

T1 sequence (P04629 510-781 limits assumed): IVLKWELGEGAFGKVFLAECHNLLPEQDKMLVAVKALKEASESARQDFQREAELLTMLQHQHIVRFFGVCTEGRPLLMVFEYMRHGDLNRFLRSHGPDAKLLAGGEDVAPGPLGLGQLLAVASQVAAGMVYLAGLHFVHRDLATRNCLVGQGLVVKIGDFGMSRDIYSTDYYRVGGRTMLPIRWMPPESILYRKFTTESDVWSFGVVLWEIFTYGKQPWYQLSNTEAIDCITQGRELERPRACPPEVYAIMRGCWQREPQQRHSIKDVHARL

Row | IC50 [nM] | SMILES
1 | < 10 | Fc1ccc(F)c([C@H]2CCCN2c2ccn3ncc(-n4cc(C(F)(F)F)cn4)c3n2)c1 [I-147]
2 | < 10 | Cc1cnn(-c2cnn3ccc(N4CCC[C@@H]4c4cc(F)ccc4F)nc23)c1 [I-148]
3 | < 10 | Fc1ccc(F)c([C@H]2CCCN2c2ccn3ncc(-n4cc(-c5ccccc5)cn4)c3n2)c1 [I-149]
4 | < 10 | Cc1cn(-c2cnn3ccc(N4CCC[C@@H]4c4cc(F)ccc4F)nc23)nc1C [I-150]
5 | < 10 | Cc1nn(-c2cnn3ccc(N4CCC[C@@H]4c4cc(F)ccc4F)nc23)cc1-c1ccccc1 [I-151]
6 | < 10 | Fc1ccc(F)c([C@H]2CCCN2c2ccn3ncc(-n4cccn4)c3n2)c1 [I-152, (R)-5-(2-(2,5-difluorophenyI)pyrroIidin-1-yl)-3-(1H-pyrazol-1-yl)pyrazolo[1,5-a]pyrimidine]
7 | < 10 | Fc1ccc(F)c([C@H]2CCCN2c2ccn3ncc(-n4cc(-c5cnccn5)cn4)c3n2)c1 [I-153]
8 | < 10 | Cc1cnn(-c2cnn3ccc(N4CCC[C@@H]4c4nc(F)ccc4F)nc23)c1 [I-154, (R)-5-(2-(3,6-difluoropyridin-2-yl)pyrrolidin-1-yl)-3-(4-methyl-1H-pyrazol-1-yl)pyrazolo[1,5-a]pyrimidine]
9 | < 10 | OCc1cnn(-c2cnn3ccc(N4CCC[C@@H]4c4cc(F)ccc4F)nc23)c1 [I-155]
10 | < 10 | OCCc1cnn(-c2cnn3ccc(N4CCC[C@@H]4c4cc(F)ccc4F)nc23)c1 [I-156]
11 | < 10 | Cc1noc(C)c1-c1cnn(-c2cnn3ccc(N4CCC[C@@H]4c4cc(F)ccc4F)nc23)c1 [I-157, (R)-4-(1-(5-(2-(2,5-difluorophenyl)pyrrolidin˜yl)pyrazolo[,5-a]pyrimidin-3-yl)-1H-pyrazol-4-yl)-3,5-dimethylisoxazole]
12 | < 10 | Cn1cc(-c2cnn(-c3cnn4ccc(N5CCC[C@@H]5c5cc(F)ccc5F)nc34)c2)cn1 [I-158]
13 | < 10 | Fc1ccc(F)c([C@H]2CCCN2c2ccn3ncc(-n4cc(-c5cccnc5)cn4)c3n2)c1 [I-159]
14 | < 10 | Fc1ccc(F)c([C@H]2CCCN2c2ccn3ncc(-n4cc(-c5ccncc5)cn4)c3n2)c1 [I-160]
15 | < 10 | COc1cncc(-c2cnn(-c3cnn4ccc(N5CCC[C@@H]5c5cc(F)ccc5F)nc34)c2)c1 [I-161]
16 | < 10 | Fc1ccc(F)c([C@H]2CCCN2c2ccn3ncc(-n4cc(-c5ccsc5)cn4)c3n2)c1 [I-162]
17 | < 10 | Fc1ccc(F)c([C@H]2CCCN2c2ccn3ncc(-n4cc(-c5cncnc5)cn4)c3n2)c1 [I-163]
18 | < 10 | Cc1ncc(-c2cnn(-c3cnn4ccc(N5CCC[C@@H]5c5cc(F)ccc5F)nc34)c2)s1 [I-164]
19 | < 10 | Cn1ccc(-c2cnn(-c3cnn4ccc(N5CCC[C@@H]5c5cc(F)ccc5F)nc34)c2)cc1=O [I-165]
20 | > 500 | COc1cc(C)nn1-c1cnn2ccc(N3CCC[C@@H]3c3cc(F)ccc3F)nc12 [I-166]
21 | > 500 | COc1cc(C)n(-c2cnn3ccc(N4CCC[C@@H]4c4cc(F)ccc4F)nc23)n1 [I-167]
22 | < 10 | Fc1ccc(F)c([C@H]2CCCN2c2ccn3ncc(-n4cncn4)c3n2)c1 [I-168]
23 | < 10 | CC(C)(O)c1cnn(-c2cnn3ccc(N4CCC[C@@H]4c4cc(F)ccc4F)nc23)c1 [I-169]
24 | < 10 | N#Cc1cnn(-c2cnn3ccc(N4CCC[C@@H]4c4cc(F)ccc4F)nc23)c1 [I-170, (R)-1-(5-(2-(2,5-difluorophenyl)pyrrolidin-1-yl)pyrazolo[J5-a]pyrimidin-3-yl)-1H-pyrazole-4-carbonitrile]

Row | IC50 [nM] | SMILES
25 | < 10 | Fc1ccc(F)c([C@H]2CCCN2c2ccn3ncc(-n4cc(-c5cn[nH]c5)cn4)c3n2)c1 [I-171]
26 | < 10 | COc1cnn(-c2cnn3ccc(N4CCC[C@@H]4c4cc(F)ccc4F)nc23)c1 [I-172]
27 | < 10 | NC(=O)c1cnn(-c2cnn3ccc(N4CCC[C@@H]4c4cc(F)ccc4F)nc23)c1 [I-173, (R)-1-(5-(2-(2,5-difluorophenyl)pyrrolidin-1-yl)pyrazolo[1,5-a]pyrimidin-3-yl)-1H-pyrazole-4-carboxamide]
28 | < 10 | CP(C)(=O)c1cnn(-c2cnn3ccc(N4CCC[C@@H]4c4cc(F)ccc4F)nc23)c1 [I-174, (R)-(1-(5-(2-(2,5-difluorophenyl)pyrrolidm-1-yl)pyrazolo[1,5-a]pyrimidin-3-yl)-1H-pyrazol-4-yl)dimethylphosphine-oxide]
29 | < 10 | Fc1ccc(F)c([C@H]2CCCN2c2ccn3ncc(-n4cc(C5=CCOCC5)cn4)c3n2)c1 [I-175, (R)-5-(2-(2,5-difluorophenyl)pyrrolidin-1-yl)-3-(4-(3,6-dihydro-2H-pyran-4-yl)-1H-pyrazol-1-yl)pyrazolo[1,5-a]pyrimidine]
30 | < 10 | Fc1ccc(F)c([C@H]2CCCN2c2ccn3ncc(-n4cc(C(F)F)cn4)c3n2)c1 [I-176, (R)-3-(4-(difluor®methyl)-1H-pyrazol-1-yl)-5-(2-(2,5-difluorophenyl)pyrrolidin-˜yl)pyrazolo[1,5-a]pyriniidine]
31 | < 10 | CCP(=O)(CC)c1cnn(-c2cnn3ccc(N4CCC[C@@H]4c4cc(F)ccc4F)nc23)c1 [I-177]
32 | < 10 | Cc1nnc(-c2cnn(-c3cnn4ccc(N5CCC[C@@H]5c5cc(F)ccc5F)nc34)c2)o1 [I-178, (R)-2-(1-(5-(2-(2,5-difluorophenyl)pyrrolidin-1-yl)pyrazolo[1,5-a]pyrimidin-3-yl)-1H-pyrazol-4-yl)-5-methyl-1,3,4-oxadiazole]
33 | < 10 | Fc1ccc(F)c([C@H]2CCCN2c2ccn3ncc(-n4cc(OC5COC5)cn4)c3n2)c1 [I-179]
34 | < 10 | COCCOCc1cnn(-c2cnn3ccc(N4CCC[C@@H]4c4cc(F)ccc4F)nc23)c1 [I-180, (R)-5-(2-(2,5-difluerophenyl)pyrrolidin-1-yl)-3-(4-((2-methoxyethoxy)methyl)-1H-pyrazol-1-yl)pyrazolo[1,5-a]pyrimidine]
35 | < 10 | CS(=O)(=O)c1cnn(-c2cnn3ccc(N4CCC[C@@H]4c4cc(F)ccc4F)nc23)c1 [I-181, (R)-5-(2-(2,5-difluorophenyl)pyrrolidin-1-yl)-3-(4-(methylsulfonyl)-1H-pyrazoI-1-yl)pyrazolo[1,5-a]pyrimidine]
36 | < 10 | Cc1cnn(-c2cnn3ccc(N4CCC[C@@H]4c4ncccc4F)nc23)c1 [I-182, (R)-5-(2-(3-fluoropyridin-2-yl)pyrrolidin-1-yl)-3-(4-methyl-1H-pyrazol-1-yl)pyrazolo[1,5-a] pyrimidine]
37 | < 10 | Fc1ccc(F)c([C@H]2CCCN2c2ccn3ncc(-n4cc5c(n4)CCOC5)c3n2)c1 [I-183, (R)-2-(5-(2-(2,5-difluorophenyl)pyrrolidin-1-yl)pyrazolo[1,5-a]pyrimidin-3-yl)-2,4,6,7-tetrahydropyrano[4,3-c]pyrazole]
38 | < 10 | Fc1ccc(F)c([C@H]2CCCN2c2ccn3ncc(-n4ncc5c4CCOC5)c3n2)c1 [I-184, (R)-1-(5-(2-(2,5-difluorophenyl)pyrrolidin-1-yl)pyrazolo[1,5-a]pyrimidin-3-yl)-1,4,6,7-tetrahydropyrano[4,3-c]pyrazole]
39 | < 10 | O=C(c1cnn(-c2cnn3ccc(N4CCC[C@@H]4c4cc(F)ccc4F)nc23)c1)N1CCOCC1 [I-185, (R)-(1-(5-(2-(2,5-difluoropheiiyl)pyrrolidin-1-yl)pyrazolo[la]pyrimidin-3-yl)-1H-pyrazol-4-yl)(morpholino)methanone]
40 | < 10 | CN(C)Cc1cnn(-c2cnn3ccc(N4CCC[C@@H]4c4cc(F)ccc4F)nc23)c1 [I-186, (R)-1-(1-(5-(2-(2,5-difluor®phenyl)pyrrolidin-1-yl)pyrazolo[1,5-a]pyrimidin-3-yl)-1H-pyrazol-4-yl)-N,N-dimethylmethanamine]
41 | < 10 | Fc1ccc(F)c([C@H]2CCCN2c2ccn3ncc(-n4cc(C5CCOCC5)cn4)c3n2)c1 [I-187, (R)-5-(2-(2,5-difluorophenyi)pyrrolidin-1-yl)-3-(4-(tetrahydro-2H-pyran-4-yl)-1H-pyrazol-1-yl)pyrazolo[1,5-a]pyrimidine]
42 | < 10 | Fc1ccc(F)c([C@H]2CCCN2c2ccn3ncc(-n4cc(C5=CCOC5)cn4)c3n2)c1 [I-188]
43 | < 10 | Fc1ccc(F)c([C@H]2CCCN2c2ccn3ncc(-n4cc(-c5ccoc5)cn4)c3n2)c1 [I-189]
44 | < 10 | Fc1cncc(-c2cnn(-c3cnn4ccc(N5CCC[C@@H]5c5cc(F)ccc5F)nc34)c2)c1 [I-190]
45 | < 10 | N#Cc1cncc(-c2cnn(-c3cnn4ccc(N5CCC[C@@H]5c5cc(F)ccc5F)nc34)c2)c1 [I-191]
46 | < 10 | Fc1cccnc1[C@H]1CCCN1c1ccn2ncc(-n3cc(-c4ccccc4)cn3)c2n1 [I-192]
47 | < 10 | Fc1ccc(F)c([C@H]2CCCN2c2ccn3ncc(-n4cc(-c5ccccc5)cn4)c3n2)n1 [I-193]
48 | < 10 | Fc1ccc(F)c([C@H]2CCCN2c2ccn3ncc(-n4cc(-c5cccnc5F)cn4)c3n2)c1 [I-194]
